Measurements: patent US12064502B2, “Peptide exhibiting wrinkle-improving activity and uses thereof” (CAREGEN CO., LTD., priority 2017, dated 2024)
“And” between values parts separate entries of the source, which are not always exact repeats. Equal entries are not always repeated.

What was measured:
[1] = system: collagen1a, fibronectin, elastin mRNA; assay: RT-PCR of collagen1a, fibronectin and elastin in fibroblasts; assay type: cell-based, mouse; conditions: 10 μM or 50 μM, NIH3T3, 24 hours
Description: Mouse fibroblast NIH3T3 was seeded in a 6-well plate at a density of 5×10^3 cells/well, and then cultured overnight. Subsequently, the media were changed to 0.05% FBS-containing media, followed by culturing for 4 hours. Then, treatment with the positive control, i.e., 100 nM IGF-1, and 10 μM or 50 μM of the peptide consisting of an amino acid sequence of SEQ ID NO: 1, 2, 3, or 4 were performed and cultured for 24 hours. Then, the cells were cultured and collected to isolate RNA. cDNA was synthesized using a cDNA synthesis kit (Intron, Korea) after quantification of RNA, and PCR was carried out using primers of each of PCR premix (Intron, Korea) and collagen1a, fibronectin, elastin, GAPDH in Table 4. Then, the cells were run on 5% agarose gel, and degrees of mRNA expression of the growth factors were compared in each peptide treatment condition.

Mouse fibroblast NIH3T3 = assay: Promotion of proliferation of fibroblasts (MTT assay); assay type: cell-based; conditions: NIH3T3, 3 days; for Fibroblast proliferation (result in words): 10 μM or 50 μM; for Fibroblast proliferation (%): MTT, control = 100
Description: Mouse fibroblast NIH3T3 was seeded in a 96-well plate at a density of 5×10^3 cells/well, and then cultured overnight. Subsequently, the media were changed to 0.05% serum-containing media. Then, treatment with the positive control, i.e., 100 nM bFGF, and 10 μM or 50 μM of the peptide consisting of an amino acid sequence of SEQ ID NO: 1, 2, 3, or 4 were performed and cultured for 3 days. Then, 4 mg/mL MTT solution treatment was performed, and the reaction was carried out for 4 hours. Then, the resulting formazan was dissolved by treatment with dimethyl sulfoxide (hereinafter referred to as “DMSO”), and the absorbance at 560 nm was measured using a microplate reader.

[2] = system: MAPK (ERK, p38, and JNK) and AKT; assay: Phosphorylation level of MAPK and AKT in fibroblasts (western blotting); assay type: cell-based, mouse; conditions: 10 μM or 50 μM, NIH3T3, 30 minutes
Description: Mouse fibroblast NIH3T3 was seeded in a 6-well plate at a density of 5×10^3 cells/well, and then cultured overnight. Subsequently, the media were changed to 0.05% FBS-containing media. Then, treatment with the positive control, i.e., 100 nM bFGF, and 10 μM or 50 μM of the peptide consisting of an amino acid sequence of SEQ ID NO: 1, 2, 3, or 4 were performed and cultured for 30 minutes. Then, the cells were collected to prepare cell lysate. Then, western blotting was performed using P-MAPK (p-Erk, p-JNK, p-p38) and p-Akt or actin antibody (Santacruz Biotechnology, USA).

Procollagen1a = Procollagen1a ELISA; assay type: cell-based, mouse; conditions: for Pro-collagen1a protein expression (result in words): NIH3T3, 72 hours, ELISA; for Procollagen1a expression (%): NIH3T3 medium, 72 hours, control = 100
Description: Mouse fibroblast NIH3T3 was seeded in a 6-well plate at a density of 5×10^3 cells/well, and then cultured overnight. Subsequently, the media were changed to 0.05% FBS-containing media, followed by culturing for 4 hours. Then, treatment with the positive control, i.e., 100 nM IGF-1, and the peptide consisting of an amino acid sequence of SEQ ID NO: 1, 2, 3, or 4 were performed and cultured for 72 hours. Then, the media were collected. The amount in the medium was measured using Procollagen1a ELISA kit (Usbiological Lifescience, USA).

Human keratinocyte HaCaT = assay: Promotion of proliferation of keratinocytes (MTT assay); assay type: cell-based; conditions: 3 days, control = 100
Description: Human keratinocyte HaCaT was seeded in a 6-well plate at a density of 3×10^5 cells/well, and then cultured overnight. Subsequently, the media were changed to 0.05% serum-containing media. Then, treatment with the positive control, i.e., 10 nM EGF, and 10 μM or 50 μM of the peptide consisting of an amino acid sequence of SEQ ID NO: 1, 2, 3, or 4 were performed and cultured for 3 days. Then, 4 mg/mL MTT solution treatment was performed, and the reaction was carried out for 4 hours. Then, the resulting formazan was dissolved by treatment with dimethyl sulfoxide (hereinafter referred to as “DMSO”), and the absorbance at 560 nm was measured using a microplate reader.

HA = HA ELISA; assay type: cell-based, human; conditions: 72 hours; for HA expression: HaCaT medium, control 251
Description: Human keratinocyte HaCaT was seeded in a 6-well plate at a density of 3×10^5 cells/well, and then cultured overnight. The media were changed to 0.05% FBS-containing media, followed by culturing for 4 hours. Then, treatment with the positive control, i.e., 100 nM IGF-1, and the peptide consisting of an amino acid sequence of SEQ ID NO: 2 were performed and cultured for 72 hours. Then, the media were collected. An HA ELISA kit (Echelon, USA) was used to measure an amount thereof.

ERK and p38 = assay: Phosphorylation level of MAPK and AKT in keratinocytes (western blotting); assay type: cell-based, human; conditions: 10 μM or 50 μM, HaCaT, 30 minutes
Description: Human keratinocyte HaCaT was seeded in a 6-well plate at a density of 3×10^5 cells/well, and then cultured overnight. Subsequently, the media were changed to 0.05% FBS-containing media. Then, treatment with the positive control, i.e., 10 nM EGF, and 10 μM or 50 μM of the peptide consisting of an amino acid sequence of SEQ ID NO: 1 or 2 were performed and cultured for 30 minutes. Then, the cells were collected to prepare cell lysate. Then, western blotting was performed using P-MAPK (p-Erk, p-JNK, p-p38) and p-Akt antibody (Santacruz Biotechnology, USA).

AQP3 = assay: RT-PCR of AQP3 (Aquaporin3) and SIRT1 in keratinocytes; assay type: cell-based, human; conditions: 10 μM or 50 μM, HaCaT, 24 hours
Description: Human keratinocyte HaCaT was seeded in a 6-well plate at a density of 3×10^5 cells/well, and then cultured overnight. Subsequently, the media were changed to 0.05% FBS-containing media, followed by culturing for 4 hours. Then, treatment with the positive control, i.e., 100 nM EGF, and 10 μM or 50 μM of the peptide consisting of an amino acid sequence of SEQ ID NO: 1 or 2 were performed and cultured for 24 hours. Then, the cells were cultured and collected to isolate RNA. cDNA was synthesized using a cDNA synthesis kit (Intron, Korea) after quantification of RNA, and PCR was carried out using primers of each of PCR premix (Intron, Korea) and AQP3, SIRT1, and GAPDH in Table 5. Then, the cells were run on 5% agarose gel, and degrees of mRNA expression of the growth factors were compared in each peptide treatment condition.

[3] = system: collagen 1a, fibronectin, and elastin; assay: Expression amount of collagen1a, fibronectin and elastin protein (antibody staining, fluorescence microscope); assay type: cell-based, mouse; conditions: NIH3T3, 24 hours
Description: Mouse fibroblast NIH3T3 was seeded in a 6-well plate at a density of 5×10^3 cells/well, and then cultured overnight. Subsequently, the media were changed to 0.05% serum-free media. Then, treatment with the positive control, i.e., 100 nM EGF, and the peptide consisting of an amino acid sequence of SEQ ID NO: 1 or 2 were performed and cultured for 24 hours. Then, the cells were fixed for 30 minutes using 4% paraformaldehyde. Then, after washing 3 times, the cells were reacted with 0.5% Triton X-100 for 15 minutes and washed again 3 times. Then, 3% BSA was blocked for 1 hour and the primary antibody (1:100) for collagen 1a, fibronectin, and elastin was reacted overnight at 4° C. Then, the secondary antibody (1:500) was reacted at room temperature for 2 hours, stained with DAPI staining, and observation was made with a fluorescence microscope.

Row | Substance | mRNA expression of collagen, fibronectin and elastin (result in words) [1] | Fibroblast proliferation (result in words) (Mouse fibroblast NIH3T3) | Fibroblast proliferation (%) (Mouse fibroblast NIH3T3; peptide 10 μM) | Fibroblast proliferation (%) (Mouse fibroblast NIH3T3; peptide 50 μM) | Phosphorylation of MAPK and AKT in fibroblasts (result in words) [2] | Pro-collagen1a protein expression (result in words) (Procollagen1a) | Procollagen1a expression (%) (Procollagen1a; peptide 10 μM) | Procollagen1a expression (%) (Procollagen1a; peptide 50 μM) | Keratinocyte proliferation (%) (Human keratinocyte HaCaT; peptide 10 μM) | Keratinocyte proliferation (%) (Human keratinocyte HaCaT; peptide 50 μM) | Keratinocyte proliferation (%) (Human keratinocyte HaCaT; positive control 10 nM) | HA expression (HA; positive control 100 nM) | Procollagen1a expression (%) (Procollagen1a; positive control 100 nM) | Phosphorylation of MAPK in keratinocytes (result in words) (ERK and p38) | AQP3 expression (result in words) (AQP3) | HA expression (result in words) (HA; HaCaT, ELISA) | HA expression (HA; peptide 10 μM) | HA expression (HA; peptide 50 μM) | Protein expression of collagen, fibronectin and elastin (result in words) [3] | Fibroblast proliferation (%) (Mouse fibroblast NIH3T3; positive control 100 nM)
1 | EDEFKPPAAGR [SEQ ID NO: 4] | increasing expression of mRNA of collagen, fibronectin, and elastin | promote fibroblast proliferation | 114% | 193% | activation of MAPK (ERK, p38, and JNK) and AKT | expression of pro-collagen1a protein was found to increase | 122% | 141% | 113% | 142% | – | – | – | – | – | – | – | – | – | –
2 | EGF: positive control, 10 nM EGF, in the keratinocyte tests [reference compound] | – | – | – | – | – | – | – | – | – | – | 187% and 142% and 152% | – | – | – | – | – | – | – | – | –
3 | GPVH [SEQ ID NO: 3] | increasing expression of mRNA of collagen, fibronectin, and elastin | promote fibroblast proliferation | 194% | 261% | activation of MAPK (ERK, p38, and JNK) and AKT | expression of pro-collagen1a protein was found to increase | 138% | 143% | 183% | 197% | – | – | – | – | – | – | – | – | – | –
4 | IGF-1: positive control, 100 nM IGF-1, in the ELISA and RT-PCR tests [reference compound] | – | – | – | – | – | – | – | – | – | – | – | 280 ng/mL | 113% and 140% | – | – | – | – | – | – | –
5 | ILGRWCG [SEQ ID NO: 2] | increasing expression of mRNA of collagen, fibronectin, and elastin | promote fibroblast proliferation | 188% | 253% | activation of MAPK (ERK, p38, and JNK) and AKT | expression of pro-collagen1a protein was found to increase | 145% | 146% | 111% | 119% | – | – | – | activation of ERK and p38 | increasing AQP3 expression | increasing HA expression | 286 ng/mL | 292 ng/mL | increasing expression of proteins of collagen, fibronectin, and elastin | –
6 | KWGGGRY [SEQ ID NO: 1] | increasing expression of mRNA of collagen, fibronectin, and elastin | promote fibroblast proliferation | 170% | 194% | activation of MAPK (ERK, p38, and JNK) and AKT | expression of pro-collagen1a protein was found to increase | 98% | 157% | 120% | 136% | – | – | – | activation of ERK and p38 | increasing AQP3 expression | – | – | – | increasing expression of proteins of collagen, fibronectin, and elastin | –
7 | bFGF: positive control, 100 nM bFGF, in the fibroblast tests [reference compound] | – | – | – | – | – | – | – | – | – | – | – | – | – | – | – | – | – | – | – | 386% and 279% and 400%
